Where two headings read alike, the source gives them in different places.
Legend:
[1] = tested on: P. aeruginosa PAE 1001; test: In vitro antibacterial activity (MIC), P. aeruginosa; type: cell-based; settings: Pseudomonas aeruginosa, PAE1001
Text: (§1) The in vitro activity of compounds described herein may be assessed by standard testing procedures such as the determination of minimum inhibitory concentration (MIC) as described in Approved Standard. Methods for Dilution Antimicrobial Susceptibility Tests for Bacteria that Grow Aerobically, 3rd ed., 1993, published by the National Committee for Clinical Laboratory standards, Villanova, Pennsylvania, USA. Low MIC values indicate high antibacterial activity, while high MIC values reveal a reduced antibacterial activity (with higher drug concentration required for pathogen eradication in the latter instance). Generally, MIC values of about ≤4-8 μg/mL indicate a therapeutic (i.e. suitable for therapy) potency for antibacterial drugs, while MIC values of ≥16 μg/mL indicate a lack of therapeutically useful activity for a test compound.

[2] = tested on: A. baumannii MABA 0001; test: In vitro antibacterial activity (MIC), A. baumannii; type: cell-based; settings: Acinetobacter baumannii, MABA0001
Text: as §1

[3] = Pharmacokinetic study in rat (iv or oral gavage); type: in vivo, SD rats; settings: SD rat; for AUC compared with that of Example 5, in words: oral
Text: To further elucidate therapeutic potential of drug compounds, pharmacokinetic (PK) data is used to establish the key parameters predictive of the therapy outcome, such as area under the curve (AUC) for a plot monitoring the change in the systemic drug concentration over time. Thus, a higher AUC value indicates a greater exposure to the drug, commonly associated with a greater therapeutic potential due to a higher amount of drug available to combat the infection in a mammal. In contrast, a lower AUC value indicates a reduced exposure to the drug under study, resulting in a reduced amount of antibiotic available to combat bacterial infestations. To that end, the compounds described herein were tested in a rat PK model of oral administration performed analogously to methods described in the monograph Current Protocols in Pharmacology, 2005, 7.1.1-7.1.26, John Wiley & Sons, Inc.
All the compounds were administered to SD rats (The rats were randomly divided into groups with 3 rats in each group) by intravenous (iv) or oral gavage. Since the prodrugs are expected to convert to the parent molecule in vivo, only the parent compound (the compound of Example 5) was tested for all samples. […] This low bioavailability as well as low exposure (AUC) and C max make it inappropriate for development as oral drug. […] Because the prodrugs usually have larger molecular weight due to the introduction of prodrug substructures, the AUC is corrected by dose and molecular weight (MW) to give AUC per mole, to compare the efficiency among the prodrugs.

[4] = tested on: K. pneumoniae ATCC10031; test: In vitro antibacterial activity (MIC), K. pneumoniae; type: cell-based; settings: Klebsiella pneumoniae
Text: as §1

[5] = tested on: E. coli MECO 002; test: In vitro antibacterial activity (MIC), E. coli; type: cell-based; settings: Escherichia coli, MECO002
Text: as §1

[6] = tested on: Pseudomonas aeruginosa WPAE 1004; test: Pseudomonas aeruginosa mouse lung infection model; type: in vivo; settings: ICR mouse, po 10 mg/kg once daily; for WPAE 1004, Lg (CFU/lung) 24 h: oral suspension; for Δ 24 h (Control-Theray), log reduction of CFU in lung: vs untreated control
Experimental: To establish the efficacy of the compounds described herein in vivo, a Pseudomonas aeruginosa mouse lung infection model was performed by administering test compounds analogously to the method described in Andes et al. in Antimicrobial Agents and Chemotherapy, 2002, 46(11), 3484-3489. In this model, a greater reduction in the bacterial colony-forming units (CFU) indicates more beneficial therapeutic effect (more bacterial eradication), while a lower CFU reduction indicates a lower effect (less bacterial eradication). The in vivo antibacterial effect is also referred to as “efficacy”, in contrast to the term “potency,” which is commonly used for in vitro activity (expressed as MIC).
In the Pseudomonas aeruginosa ICR mouse (The mice were randomly divided into groups with 6 mice in each group) lung infection, reference Example 5 was administered orally at 10 mg/kg once daily. […] As a prodrug for oral administration, the compound of Example 2 and 8 were also given by oral gavage at 10 mg/kg once daily. […] The data is strongly supportive of the prodrug of Example 2 and 8 being converted to reference compound of Example 5 after oral administration to exert the antibacterial activity. The data also supports a high conversion rate.

[7] = Lung vs. plasma distribution study in mice; type: in vivo; settings: Balb/C mouse
[8] = tested on: Gram-negative bacteria, including Pseudomonas aeruginosa, Acinetobacter baumannii, Escherichia coli, and Klebsiella pneumoniae; test: In vitro antibacterial activity (MIC), summary over Gram-negative bacteria; type: cell-based; settings: for in vitro antibacterial activity in words: prodrugs of Example 5, Table 1 data
Text: as §1

[9] = in vivo, iv 5 mg/kg, parent compound (Example 5) measured

Row | Compound | AUClast, lung ([7]; Example 2 10 mg/kg po, levels for Example 2) [ng·h/g] | AUClast, lung ([7]; Example 2 10 mg/kg po, levels for Example 5) [ng·h/g] | AUClast, lung ([7]; Example 5 10 mg/kg iv, levels for Example 5) [ng·h/g] | Kp ([7]; lung/plasma, Example 5 10 mg/kg iv, levels for Example 5, read-out: AUC ratio (lung/plasma)) | half-life ([7]; lung, Example 5 10 mg/kg iv, levels for Example 5, read-out: t1/2, lung (converted)) [h] | AUC(0-t) ([7]; plasma, Example 5 10 mg/kg iv, levels for Example 5, read-out: AUClast, plasma) [µg·h/mL] | half-life ([7]; plasma, Example 5 10 mg/kg iv, levels for Example 5, read-out: t1/2, plasma (converted)) [h] | MIC range against Gram-negative bacteria ([8]; range over the four strains of Table 1) [mg/L] | AUC [3, 9] [µg·h/mL] | Cmax [3, 9] [µg/mL] | MIC [1] [mg/L] | MIC [2] [mg/L] | AUC compared with that of Example 5, in words [3] | MIC [4] [mg/L] | MIC [5] [mg/L] | WPAE 1004, Lg (CFU/lung) 24 h [6] | Δ 24 h (Control-Theray), log reduction of CFU in lung [6] | in vitro antibacterial activity in words [8]
1 | CC(=O)OC[C@H](COc1cccc2c1B(O)O[C@@H]2CN)OC(C)=O.Cl [Example 1, (2S)-3-acetoxy-1-{[(3S)-3-(aminomethyl)-1-hydroxy-1,3-dihydrobenzo[2,1-c][1,2]oxaborol-7-yl]oxy}propan-2-yl acetate hydrochloride] | – | – | – | – | – | – | – | – | – | – | > 32 | > 32 | significantly higher | > 32 | > 32 | – | – | –
2 | CC(C)(C)C(=O)OC[C@H](COc1cccc2c1B(O)O[C@@H]2CN)OC(=O)C(C)(C)C.Cl [Example 3, (2S)-3-[(2,2-dimethylpropanoyl)oxy]-1-{[(3S)-3-(aminomethyl)-1-hydroxy-1,3-dihydrobenzo[2,1-c][1,2]oxaborol-7-yl]oxy}propan-2-yl 2,2-dimethylpropanoate hydrochloride] | – | – | – | – | – | – | – | – | – | – | > 32 | > 32 | significantly higher | > 32 | > 32 | – | – | inactive
3 | CC(C)C(=O)OC[C@@H]1COc2cccc3c2B(O1)O[C@@H]3CN.Cl [Example 4, [(2S,6S)-2-(aminomethyl)-4-bora-3,5,8-trioxatricyclo[7.3.1.04,13]trideca-1(12),9(13),10-trien-6-yl]methyl 2-methylpropanoate hydrogen chloride] | – | – | – | – | – | – | – | – | – | – | > 32 | > 32 | significantly higher | > 32 | > 32 | – | – | inactive
4 | CCC(=O)OC[C@H](COc1cccc2c1B(O)O[C@@H]2CN)OC(=O)CC.Cl [Example 6] | – | – | – | – | – | – | – | – | – | – | – | – | significantly higher | – | – | – | – | –
5 | CC(=O)OC[C@@H]1COc2cccc3c2B(O1)O[C@@H]3CN.Cl [Example 7, [(2S,6S)-2-(aminomethyl)-4-bora-3,5,8-trioxatricyclo[7.3.1.04,13]trideca-1(12),9(13),10-trien-6-yl]methyl acetate hydrogen chloride] | – | – | – | – | – | – | – | – | – | – | – | – | significantly higher | – | – | – | – | –
6 | CCC(=O)OC[C@@H]1COc2cccc3c2B(O1)O[C@@H]3CN.Cl [Example 8, [(2S,6S)-2-(aminomethyl)-4-bora-3,5,8-trioxatricyclo[7.3.1.04,13]trideca-1(12),9(13),10-trien-6-yl]methyl propanoate hydrogen chloride] | – | – | – | – | – | – | – | – | – | – | > 32 | > 32 | significantly higher | > 32 | > 32 | 8.45 ± 0.64 Lg (CFU/lung) | 0.82 Lg (CFU/lung) | inactive

Second part, led by results:

Row | AUClast, lung ([7]; Example 2 10 mg/kg po, levels for Example 2) [ng·h/g] | AUClast, lung ([7]; Example 2 10 mg/kg po, levels for Example 5) [ng·h/g] | AUClast, lung ([7]; Example 5 10 mg/kg iv, levels for Example 5) [ng·h/g] | Kp ([7]; lung/plasma, Example 5 10 mg/kg iv, levels for Example 5, read-out: AUC ratio (lung/plasma)) | half-life ([7]; lung, Example 5 10 mg/kg iv, levels for Example 5, read-out: t1/2, lung (converted)) [h] | AUC(0-t) ([7]; plasma, Example 5 10 mg/kg iv, levels for Example 5, read-out: AUClast, plasma) [µg·h/mL] | half-life ([7]; plasma, Example 5 10 mg/kg iv, levels for Example 5, read-out: t1/2, plasma (converted)) [h] | MIC range against Gram-negative bacteria ([8]; range over the four strains of Table 1) [mg/L] | AUC [3, 9] [µg·h/mL] | Cmax [3, 9] [µg/mL] | Compound | MIC [1] [mg/L] | MIC [2] [mg/L] | AUC compared with that of Example 5, in words [3] | MIC [4] [mg/L] | MIC [5] [mg/L] | WPAE 1004, Lg (CFU/lung) 24 h [6] | Δ 24 h (Control-Theray), log reduction of CFU in lung [6] | in vitro antibacterial activity in words [8]
7 | 968 | 23589 | – | – | – | – | – | – | – | – | CC(C)C(=O)OC[C@H](COc1cccc2c1B(O)O[C@@H]2CN)OC(=O)C(C)C.Cl [Example 2, (2S)-1-{[(3S)-3-(aminomethyl)-1-hydroxy-1,3-dihydrobenzo[2,1-c][1,2]oxaborol-7-yl]oxy}-3-[(2-methylpropanoyl)oxy]propan-2-yl 2-methylpropanoate hydrochloride] | > 32 | > 32 | significantly higher | > 32 | > 32 | 7.50 ± 0.73 Lg (CFU/lung) | 1.77 Lg (CFU/lung) | inactive
8 | – | – | 12822 | 2.39 | 1.46 | 5.36 | 1.87 | 2 to 4 | 5.66 | 6.78 | Cl.NC[C@H]1OB2O[C@H](CO)COC3C=CC=C1C23 (stereo partly drawn) [Example 5, [(2S,6R)-2-(aminomethyl)-4-bora-3,5,8-trioxatricyclo[7.3.1.04,13]trideca-1(12),10-dien-6-yl]methanol hydrochloride, reference compound] | 2 | 2 | – | 4 | 2 | 8.56 ± 0.49 Lg (CFU/lung) | 0.53 Lg (CFU/lung) | –

From US20240279247A1, “PRODRUGS OF BORON COMPOUNDS AND THEIR USE IN TREATING BACTERIAL INFECTIONS” (priority 2022, published 2024)
